{"source": "patent US20230265151A1", "about": "“GIP/GLP1 CO-AGONIST COMPOUNDS” (priority 2020, published 2023)", "assay_type_in_all_cases": "cell-based", "key": {"[1]": {"target": "hGLP-1R (Homo sapiens, UniProt P43220)", "sequence (P43220 24-463)": "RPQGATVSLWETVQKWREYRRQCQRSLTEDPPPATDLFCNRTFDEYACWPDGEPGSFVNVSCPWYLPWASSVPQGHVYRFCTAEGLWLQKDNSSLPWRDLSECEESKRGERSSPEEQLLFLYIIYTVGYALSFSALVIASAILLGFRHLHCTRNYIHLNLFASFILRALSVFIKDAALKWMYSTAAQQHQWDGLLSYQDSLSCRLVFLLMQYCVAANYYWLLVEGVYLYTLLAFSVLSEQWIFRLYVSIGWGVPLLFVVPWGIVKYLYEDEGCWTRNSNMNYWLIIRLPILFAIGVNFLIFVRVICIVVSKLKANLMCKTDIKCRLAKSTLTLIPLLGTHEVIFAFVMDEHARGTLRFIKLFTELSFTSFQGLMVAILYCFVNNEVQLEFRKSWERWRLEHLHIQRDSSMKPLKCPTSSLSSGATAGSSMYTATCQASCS", "test": "Functional cAMP formation (HTRF) in HEK-293 clonal cells expressing hGLP-1R, 0.1% bovine casein, without or with 1.0% human serum albumin", "set-up": "expressed in transfected cells", "settings": "37° C.; for Emax: percent of maximal response to GLP-1(7-36)NH2, read-out: hGLP-1R Emax, % ± SEM; for EC50: cAMP, 0.1% bovine casein (no human serum albumin), geometric mean", "summary_of_the_method": "(§1)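 Cells were stimulated with peptide for 30 min at 37° C, then lysed in buffer carrying cAMP-d2 and anti-cAMP Eu3+-cryptate for a competitive HTRF read after at least 60 min at room temperature. The 665/620 nm ratio was converted to nM cAMP against a standard curve.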"}, "[2]": {"target": "T1, hGIPR (Homo sapiens, UniProt P48546)", "T1 construct": "expressed in transfected cells", "T1 sequence (P48546 22-466)": "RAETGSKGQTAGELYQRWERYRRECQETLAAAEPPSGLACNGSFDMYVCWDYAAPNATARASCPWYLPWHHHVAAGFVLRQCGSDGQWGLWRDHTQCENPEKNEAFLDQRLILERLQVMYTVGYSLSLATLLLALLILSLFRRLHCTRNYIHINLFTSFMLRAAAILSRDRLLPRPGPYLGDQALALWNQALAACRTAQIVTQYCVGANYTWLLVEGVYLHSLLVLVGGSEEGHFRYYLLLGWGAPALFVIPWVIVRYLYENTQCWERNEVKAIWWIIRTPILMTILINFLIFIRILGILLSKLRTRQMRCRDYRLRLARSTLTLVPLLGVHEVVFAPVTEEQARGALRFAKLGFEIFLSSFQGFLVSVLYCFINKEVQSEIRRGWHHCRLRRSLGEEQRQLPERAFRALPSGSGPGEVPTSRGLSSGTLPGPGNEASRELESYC", "test": "Functional cAMP formation (HTRF) in HEK-293 clonal cells expressing hGIPR, 0.1% bovine casein, without or with 1.0% human serum albumin", "settings": "for EC50: cAMP, 0.1% bovine casein (no human serum albumin), geometric mean, read-out: hGIPR EC50, nM (SEM, n)", "summary_of_the_method": "as §1"}, "[3]": {"target": "T2, hGCGR (Homo sapiens, UniProt P47871)", "T2 construct": "expressed in transfected cells", "T2 sequence (P47871 26-477)": "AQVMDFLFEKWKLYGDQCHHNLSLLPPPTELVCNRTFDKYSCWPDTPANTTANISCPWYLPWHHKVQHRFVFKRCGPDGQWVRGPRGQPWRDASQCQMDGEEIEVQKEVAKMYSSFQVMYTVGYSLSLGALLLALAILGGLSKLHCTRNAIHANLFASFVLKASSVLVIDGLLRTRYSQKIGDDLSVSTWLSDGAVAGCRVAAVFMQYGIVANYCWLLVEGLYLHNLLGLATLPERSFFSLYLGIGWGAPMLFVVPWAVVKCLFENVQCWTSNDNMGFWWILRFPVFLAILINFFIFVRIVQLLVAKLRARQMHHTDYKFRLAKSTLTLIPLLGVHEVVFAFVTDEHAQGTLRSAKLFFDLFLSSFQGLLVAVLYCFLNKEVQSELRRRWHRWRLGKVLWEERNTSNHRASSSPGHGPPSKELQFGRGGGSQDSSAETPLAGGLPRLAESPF", "test": "Functional cAMP formation (HTRF) in HEK-293 clonal cells expressing hGCGR, 0.1% bovine casein, without or with 1.0% human serum albumin", "summary_of_the_method": "as §1"}, "[4]": {"settings": "0.1% bovine casein and 1.0% human serum albumin, 37° C., geometric mean, read-out: hGCGR EC50, nM (SEM, n)"}, "[5]": {"settings": "cAMP, 37° C., 0.1% bovine casein (no human serum albumin), geometric mean, read-out: hGCGR EC50, nM (SEM, n)"}}, "note": "Where two headings read alike, the source gives them in different places. Where a SMILES comes first, the peptide text is derived from it. Side-chain parts run from the residue outwards. [ ]: non-standard residue; d: D form. The star is where a group is joined. αMePhe(2-F) = C[C@](N)(Cc1ccccc1F)C(=O)O; C14 diacid = O=C(O)CCCCCCCCCCCCC(=O)*; αMeY = C[C@](N)(Cc1ccc(O)cc1)C(=O)O; αMeL = CC(C)C[C@](C)(N)C(=O)O; Orn = NCCC[C@H](N)C(=O)O; AEEA = NCCOCCOCC(=O)O; Aib = CC(C)(N)C(=O)O"}
{"smiles": "CC[C@H](C)[C@H](NC(=O)[C@H](CCCN)NC(=O)[C@H](CC(=O)O)NC(=O)[C@H](CC(C)C)NC(=O)[C@](C)(CC(C)C)NC(=O)[C@@H](NC(=O)[C@H](CO)NC(=O)[C@H](Cc1ccc(OC)cc1)NC(=O)[C@H](CC(=O)O)NC(=O)[C@H](CO)NC(=O)[C@@H](NC(=O)[C@](C)(Cc1ccccc1F)NC(=O)[C@@H](NC(=O)CNC(=O)[C@H](CCC(=O)O)NC(=O)C(C)(C)NC(=O)[C@@H](N)Cc1ccc(O)cc1)[C@@H](C)O)[C@@H](C)O)[C@@H](C)CC)C(=O)N[C@@H](C)C(=O)N[C@@H](CCC(N)=O)C(=O)NC(C)(C)C(=O)N[C@@H](CCCCNC(=O)COCCOCCNC(=O)COCCOCCNC(=O)CCCCCCCCCCCCC(=O)O)C(=O)N[C@@H](Cc1ccccc1)C(=O)N[C@H](C(=O)N[C@H](CCC(=O)O)C(=O)N[C@@](C)(Cc1ccc(O)cc1)C(=O)N[C@@H](CC(C)C)C(=O)N[C@H](C(=O)N[C@@H](CCC(=O)O)C(=O)NCC(=O)NCC(=O)N1CCC[C@H]1C(=O)N[C@@H](CO)C(=O)N[C@@H](CO)C(=O)NCC(=O)N[C@@H](C)C(=O)N1CCC[C@H]1C(=O)N1CCC[C@H]1C(=O)N1CCC[C@H]1C(=O)N[C@@H](CO)C(=O)N[C@@H](CCCCNC(=O)COCCOCCNC(=O)COCCOCCNC(=O)CCCCCCCCCCCCC(=O)O)C(N)=O)[C@@H](C)CC)[C@@H](C)CC", "note": "[Example 268] (H-Y[Aib]EGT[αMePhe(2-F)]TSDY(Me)SI[αMeL]LD[Orn]IAQ[Aib]K([AEEA-AEEA-C14 diacid])FI[dE][αMeY]LIEGGPSSGAPPPSK([AEEA-AEEA-C14 diacid])-NH2)", "values": [{"measurement": "Emax", "setting": "[1]; HEK293, cAMP, 0.1% bovine casein, arithmetic mean", "value": 112, "unit": "%"}, {"measurement": "Emax", "setting": "[2]; HEK293, 0.1% bovine casein and 1.0% human serum albumin, 37° C., percent of maximal response to GIP(1-42)NH2, read-out: hGIPR Emax, % ± SEM", "value": 92.3, "unit": "%"}, {"measurement": "EC50", "setting": "[2]; 37° C.", "value": 0.0265, "unit": "nM"}, {"measurement": "EC50", "setting": "[3]; [4]", "value": "> 9950", "unit": "nM"}, {"measurement": "EC50", "setting": "[3]; [5]", "value": "> 9950", "unit": "nM"}]}
{"smiles": "CCCCCCCCCCCC(=O)N[C@@H](CCC(=O)NCCOCCOCC(=O)NCCOCCOCC(=O)NCCCC[C@H](NC(=O)[C@H](CO)NC(=O)[C@@H]1CCCN1C(=O)[C@@H]1CCCN1C(=O)[C@@H]1CCCN1C(=O)[C@H](C)NC(=O)CNC(=O)[C@H](CO)NC(=O)[C@H](CO)NC(=O)[C@@H]1CCCN1C(=O)CNC(=O)CNC(=O)[C@H](CCC(=O)O)NC(=O)[C@@H](NC(=O)[C@H](CC(C)C)NC(=O)[C@](C)(Cc1ccc(O)cc1)NC(=O)[C@@H](CCC(=O)O)NC(=O)[C@@H](NC(=O)[C@H](Cc1ccccc1)NC(=O)[C@H](Cc1ccncc1)NC(=O)C(C)(C)NC(=O)[C@H](CCC(N)=O)NC(=O)[C@H](C)NC(=O)[C@H](CCCCNC(=O)COCCOCCNC(=O)COCCOCCNC(=O)CC[C@H](NC(=O)CCCCCCCCCCC)C(=O)O)NC(=O)[C@H](CCCN)NC(=O)[C@H](CC(=O)O)NC(=O)[C@H](CC(C)C)NC(=O)[C@](C)(CC(C)C)NC(=O)[C@@H](NC(=O)C(C)(C)NC(=O)[C@H](Cc1ccncc1)NC(=O)[C@H](CC(=O)O)NC(=O)[C@H](CO)NC(=O)[C@@H](NC(=O)[C@](C)(Cc1ccccc1F)NC(=O)[C@@H](NC(=O)CNC(=O)[C@H](CCC(=O)O)NC(=O)C(C)(C)NC(=O)[C@@H](N)Cc1ccc(O)cc1)[C@@H](C)O)[C@@H](C)O)[C@@H](C)CC)[C@@H](C)CC)[C@@H](C)CC)C(N)=O)C(=O)O", "note": "[Example 420]", "values": [{"measurement": "Emax", "setting": "[1]; HEK293, cAMP, 0.1% bovine casein and 1.0% human serum albumin", "value": 109, "unit": "%"}, {"measurement": "EC50", "setting": "[1]; read-out: hGLP-1R EC50, nM (SEM, n)", "value": 0.123, "unit": "nM"}, {"measurement": "Emax", "setting": "[2]; HEK293, cAMP, 37° C., 0.1% bovine casein and 1.0% human serum albumin, percent of maximal response to GIP(1-42)NH2, read-out: hGIPR Emax, % ± SEM", "value": 89.7, "unit": "%"}, {"measurement": "EC50", "setting": "[2]; 37° C.", "value": 0.00964, "unit": "nM"}, {"measurement": "EC50", "setting": "[3]; [5]", "value": "> 9950", "unit": "nM"}, {"measurement": "EC50", "setting": "[3]; cAMP, 37° C., 0.1% bovine casein and 1.0% human serum albumin, geometric mean (SEM, n), read-out: hGCGR EC50, nM (SEM, n)", "value": "> 9950", "unit": "nM"}]}
{"smiles": "CC[C@H](C)[C@H](NC(=O)[C@H](CC(C)C)NC(=O)[C@](C)(Cc1ccc(O)cc1)NC(=O)[C@@H](CCC(=O)O)NC(=O)[C@@H](NC(=O)[C@H](Cc1ccc2ccccc2c1)NC(=O)[C@H](CCC(=O)O)NC(=O)C(C)(C)NC(=O)[C@H](CCC(N)=O)NC(=O)[C@H](C)NC(=O)[C@H](CCCCNC(=O)COCCOCCNC(=O)COCCOCCNC(=O)CC[C@H](NC(=O)CCCCCCCCCCCCC(=O)O)C(=O)O)NC(=O)[C@H](CCCN)NC(=O)[C@H](CC(=O)O)NC(=O)[C@H](CC(C)C)NC(=O)[C@](C)(CC(C)C)NC(=O)[C@@H](NC(=O)[C@H](CO)NC(=O)[C@H](Cc1ccncc1)NC(=O)[C@H](CC(=O)O)NC(=O)[C@H](CO)NC(=O)[C@@H](NC(=O)[C@](C)(Cc1ccccc1F)NC(=O)[C@@H](NC(=O)CNC(=O)[C@H](CCC(=O)O)NC(=O)C(C)(C)NC(=O)[C@@H](N)Cc1ccc(O)cc1)[C@@H](C)O)[C@@H](C)O)[C@@H](C)CC)[C@@H](C)CC)C(=O)N[C@@H](CCC(=O)O)C(=O)NCC(=O)NCC(=O)N[C@@H](CCCCNC(=O)COCCOCCNC(=O)COCCOCCNC(=O)CC[C@H](NC(=O)CCCCCCCCCCCCC(=O)O)C(=O)O)C(=O)N[C@@H](CO)C(=O)N[C@@H](CO)C(=O)NCC(=O)N[C@@H](C)C(=O)N1CCC[C@H]1C(=O)N1CCC[C@H]1C(=O)N1CCC[C@H]1C(=O)N[C@@H](CO)C(N)=O", "note": "[Example 99]", "values": [{"measurement": "Emax", "setting": "[1]; HEK293, 0.1% bovine casein and 1.0% human serum albumin", "value": 81.1, "unit": "%"}, {"measurement": "Emax", "setting": "[2]; HEK293, percent of maximal response to GIP(1-42)NH2, 37° C., 0.1% bovine casein, arithmetic mean, read-out: hGIPR Emax, % ± SEM", "value": "93.4 ± 1.02", "unit": "%"}, {"measurement": "EC50", "setting": "[3]; [4]", "value": "> 9950", "unit": "nM"}, {"measurement": "EC50", "setting": "[3]; cAMP, incubated at 37° C., 0.1% bovine casein (no human serum albumin), geometric mean, read-out: hGCGR EC50, nM (SEM, n)", "value": "> 9950", "unit": "nM"}]}
{"smiles": "CC[C@H](C)[C@H](NC(=O)[C@H](CC(C)C)NC(=O)[C@](C)(Cc1ccc(O)cc1)NC(=O)[C@@H](CCC(=O)O)NC(=O)[C@@H](NC(=O)[C@H](Cc1ccccc1)NC(=O)[C@H](CCCCNC(=O)COCCOCCNC(=O)COCCOCCNC(=O)CC[C@H](NC(=O)CCCCCCCCCOc1ccc(C(=O)O)cc1)C(=O)O)NC(=O)C(C)(C)NC(=O)[C@H](CCC(N)=O)NC(=O)[C@H](C)NC(=O)[C@H](CCCCNC(=O)COCCOCCNC(=O)COCCOCCNC(=O)CC[C@H](NC(=O)CCCCCCCCCOc1ccc(C(=O)O)cc1)C(=O)O)NC(=O)[C@H](CCCN)NC(=O)[C@H](CC(=O)O)NC(=O)[C@H](CC(C)C)NC(=O)[C@](C)(CC(C)C)NC(=O)[C@@H](NC(=O)[C@H](CO)NC(=O)[C@H](CCc1ccc(O)cc1)NC(=O)[C@H](CC(=O)O)NC(=O)[C@H](CO)NC(=O)[C@@H](NC(=O)[C@](C)(Cc1ccccc1F)NC(=O)[C@@H](NC(=O)CNC(=O)[C@H](CCC(=O)O)NC(=O)C(C)(C)NC(=O)[C@@H](N)Cc1ccc(O)cc1)[C@@H](C)O)[C@@H](C)O)[C@@H](C)CC)[C@@H](C)CC)C(=O)N[C@@H](CCC(=O)O)C(=O)NCC(=O)NCC(=O)N1CCC[C@H]1C(=O)N[C@@H](CO)C(=O)N[C@@H](CO)C(=O)NCC(=O)N[C@@H](C)C(=O)N1CCC[C@H]1C(=O)N1CCC[C@H]1C(=O)N1CCC[C@H]1C(=O)N[C@@H](CO)C(N)=O", "note": "[Example 320]", "values": [{"measurement": "EC50", "setting": "[1]; hGLP-1R EC50, nM (SEM, n)", "value": 0.246, "unit": "nM"}, {"measurement": "Emax", "setting": "[2]; HEK293, read-out: hGIPR Emax, % ± SEM, 0.1% bovine casein and 1.0% human serum albumin, 37° C., percent of maximal response to GIP(1-42)NH2", "value": 84.1, "unit": "%"}, {"measurement": "Emax", "setting": "[2]; HEK293, read-out: hGIPR Emax, % ± SEM, cAMP, 37° C., 0.1% bovine casein, percent of maximal response to GIP(1-42)NH2, arithmetic mean", "value": 94.2, "unit": "%"}, {"measurement": "EC50", "setting": "[3]; hGCGR EC50, nM (SEM, n), 0.1% bovine casein and 1.0% human serum albumin, 37° C., geometric mean", "value": "> 9950", "unit": "nM"}, {"measurement": "EC50", "setting": "[3]; hGCGR EC50, nM (SEM, n), cAMP, 37° C., 0.1% bovine casein (no human serum albumin), geometric mean", "value": "> 9950", "unit": "nM"}]}
